In patent US8546147B2, “Imidazo[1,2-α]pyrazin-3(7H)-one derivatives bearing a new electron-rich structure” (Universita degli Studi di Siena, priority 2009, dated 2013):
Like-named read-outs stand apart in the source and are kept apart here.

How the values were obtained:
[1] = cited from earlier work
[2] = cited from earlier work; remark: listed apart in the source
[3] = Chemiluminescence spectrum in DMSO (Shimadzu RF5001PC); type: physicochemical; details: for max. emission peak of chemiluminescent spectrum: 1-3 μg/mL in DMSO
Method: Chemiluminescence Spectrums.
Consequently, 10 μL of the stock solution were directly diluted in the quartz cuvette reader of the Fluorescence Spectrophotometer Shimadzu RF5001PC, containing 3 mL of DMSO, to obtain a final sample concentration of 1-3 μg/mL.

[4] = biological target: T1, Renilla Luciferase (RLuC) (Renilla reniformis, UniProt P27652)
T1 sequence (P27652 1-311): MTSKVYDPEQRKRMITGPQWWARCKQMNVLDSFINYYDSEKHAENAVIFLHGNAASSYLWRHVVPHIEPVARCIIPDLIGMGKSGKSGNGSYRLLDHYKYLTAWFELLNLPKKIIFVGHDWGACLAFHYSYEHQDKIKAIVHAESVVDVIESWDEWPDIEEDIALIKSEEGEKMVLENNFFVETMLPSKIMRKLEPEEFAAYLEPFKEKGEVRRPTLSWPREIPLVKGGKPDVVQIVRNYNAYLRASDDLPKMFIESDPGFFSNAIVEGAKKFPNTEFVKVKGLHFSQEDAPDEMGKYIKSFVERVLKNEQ
Method: Bioluminescence Spectrum.
Bioluminescence was measured according to standard procedures.^40

[5] = biological target: T2, RLuC (donor) and Green Fluorescent Protein GFP (acceptor) (Renilla reniformis, UniProt P27652); details: three different times, FIG. 8-10
T2 sequence (P27652 1-311): T1 sequence (P27652 1-311)

[6] = biological target: T3, RLuc (Renilla reniformis, UniProt P27652); details: cited from earlier work
T3 sequence (P27652 1-311): T1 sequence (P27652 1-311)

[7] = first line of values, native = 1.00
[8] = second line of values (line with half-rise time in ms)

Compound | Half-rise Time ([1]; first line of values) | Relative Intensity [1, 7] | Relative Luminescence capacity [1, 7] | Relative Intensity [1, 8] | Relative Luminescence capacity [1, 8] | Half-rise Time ([1]; second line of values) | other results
Coelenterazine hcp | 0.15 to 0.3 s | 190 | 0.67 | 500 | 0.65 | 0.002 to 0.005 s | –
O=c1c(Cc2ccc(O)cc2)nc2c(Cc3ccccc3)[nH]c(-c3ccc(O)cc3)cn1-2 [Compound 1, coelenterazine] | 0.4 to 0.8 s | 1.00 | 1.00 | – | – | 0.006 to 0.03 s | ΦCl ([2]; chemiluminescence quantum yield): 0.21%; Relative Light Yield ([2]; in brackets, relative to compound 1 (1.0)): 1.0
Oc1ccc(Cc2nc3c(Cc4ccccc4)nc4c(n3c2O)CCc2cc(O)ccc2-4)cc1 [Coelenterazine e] | 0.15 to 0.3 s | 4 | 0.5 | – | – | – | –
O=c1c(Cc2ccccc2)nc2c(Cc3ccccc3)[nH]c(-c3ccccc3)cn1-2 [Compound 23b, 2,8-Dibenzyl-6-phenylimidazo-[1,2-a]pyrazin-3(7H)-one] | – | – | – | – | – | – | max. emission peak of chemiluminescent spectrum [3]: 465 nm
O=c1c(Cc2ccccc2)nc2c(Sc3ccc(Cl)cc3)[nH]c(-c3ccc(O)cc3)cn1-2 [Compound 23i, 2-Benzyl-8-(4-chlorophenylthio)-6-(4-hydroxyphenyl)imidazo[1,2-a]pyrazin-3(7H)-one] | – | – | – | – | – | – | Chemil. Imax [3]: 505 nm; Biolum. Imax [4]: 510 nm
O=c1c(Cc2ccc(O)cc2)nc2c(CC3CCCC3)[nH]c(-c3ccc(O)cc3)cn1-2 [Coelenterazine cp] | 0.15 to 0.3 s | 20 | 0.95 | 28 | 0.63 | 0.005 s | –
O=c1c(Cc2ccccc2)nc2c(Sc3ccccc3)[nH]c(-c3ccccc3)cn1-2 [Compound 23f, 2-Benzyl-6-phenyl-8-(phenylthio)imidazo-[1,2-a]pirazin-3(7H)-one] | – | – | – | – | – | – | kinetic of chemiluminescence (in words) [3]: slower than 23b; max. emission peak of chemiluminescent spectrum [3]: 510 nm; emission shift between chemiluminescent spectrums ([3]; 23f versus 23b): about 45 nm; chemiluminescence intensity (in words) ([3]; compared with 23b): relative lowest intensity; emission over time in BRET experiment (in words) [5]: long lasting; bioluminescent emission [4]: about 415 nm; shift in respect of compound 23b [4]: about 30 nm; Shifts vs.23b ([4]; 1st measurement): 27.7 nm; Bioluminescent emission max ([4]; 1st measurement of triplicate): 415.1 nm; Shifts vs.23b ([4]; 2nd measurement): 27.4 nm; Bioluminescent emission max ([4]; 2nd measurement of triplicate): 419.4 nm; Shifts vs.23b ([4]; 3d measurement): 31.4 nm; Bioluminescent emission max ([4]; 3d measurement of triplicate): 424.3 nm
Coelenterazine n | 5 s | 0.01 | 0.26 | 0.15 | 0.25 | 0.006 to 0.03 s | –
O=c1c(Cc2ccccc2)nc2c(Cc3ccccc3)[nH]c(-c3ccc4c(c3)OCO4)cn1-2 [Compound 23e, 2,8-Dibenzyl-6-[3,4-(methylendioxy)-phenyl]imidazo-[1,2-a]pirazin-3(7H)-one] | – | – | – | – | – | – | emission over time in BRET experiment (in words) [5]: decrease over time; Shifts vs.23b ([4]; 1st measurement): 10.2 nm; Bioluminescent emission max ([4]; 1st measurement of triplicate): 397.6 nm; Shifts vs.23b ([4]; 2nd measurement): 5.5 nm; Bioluminescent emission max ([4]; 2nd measurement of triplicate): 397.5 nm; Shifts vs.23b ([4]; 3d measurement): 5.2 nm; Bioluminescent emission max ([4]; 3d measurement of triplicate): 398.2 nm
O=c1c(Cc2ccccc2)nc2c(Cc3ccccc3)[nH]c(-c3ccccc3)cn1-2 [Coelenterazine 400a] | – | – | – | – | – | – | Rluc emission peak [6]: 395 nm
Oc1ccc(-c2cn3c(O)c(Cc4ccccc4)nc3c(Cc3ccccc3)n2)cc1 [Coelenterazine h] | 0.4 to 0.80 s | 10 | 0.82 | 16 | 0.75 | 0.006 to 0.03 s | –
Coelenterazine ip | 1 s | 47 | 0.54 | – | – | – | –
O=c1c(Cc2ccc(F)cc2)nc2c(CC3CCCC3)[nH]c(-c3ccc(O)cc3)cn1-2 [Coelenterazine fcp] | 0.4 to 0.8 s | 135 | 0.57 | – | – | – | –
O=c1c(Cc2ccc(F)cc2)nc2c(Cc3ccccc3)[nH]c(-c3ccc(O)cc3)cn1-2 [Coelenterazine f] | 0.4 to 0.8 s | 18 | 0.80 | 20 | 0.80 | 0.006 to 0.03 s | –
O=c1c(Cc2ccccc2)nc2c(Sc3ccc(Cl)cc3)[nH]c(-c3ccccc3)cn1-2 [Compound 23n, 2-Benzyl-8-(4-chlorophenylthio)-6-phenylimidazo[1,2-a]pyrazin-3(7H)-one] | – | – | – | – | – | – | Chemil. Imax [3]: 505 nm
O=c1c(Cc2ccc(I)cc2)nc2c(Cc3ccccc3)[nH]c(-c3ccc(O)cc3)cn1-2 [Coelenterazine i] | 8 s | 0.03 | 0.70 | – | – | – | –
